Source: BindingDB's records for doi:10.1016/j.ejmech.2014.09.039 (2014)

Target: Neuronal acetylcholine receptor subunit alpha-7 (Homo sapiens, UniProt P36544)
Experiment: Positive allosteric modulation at human alpha7 nACHR expressed in Xenopus oocyte assessed as potentiation of ACh-induced current at holding potential of -80 mV measured as ACh EC50 at 1 uM by electrophysiology (Rvb = 176 uM)

Sequence of Neuronal acetylcholine receptor subunit alpha-7 (P36544 whole entry): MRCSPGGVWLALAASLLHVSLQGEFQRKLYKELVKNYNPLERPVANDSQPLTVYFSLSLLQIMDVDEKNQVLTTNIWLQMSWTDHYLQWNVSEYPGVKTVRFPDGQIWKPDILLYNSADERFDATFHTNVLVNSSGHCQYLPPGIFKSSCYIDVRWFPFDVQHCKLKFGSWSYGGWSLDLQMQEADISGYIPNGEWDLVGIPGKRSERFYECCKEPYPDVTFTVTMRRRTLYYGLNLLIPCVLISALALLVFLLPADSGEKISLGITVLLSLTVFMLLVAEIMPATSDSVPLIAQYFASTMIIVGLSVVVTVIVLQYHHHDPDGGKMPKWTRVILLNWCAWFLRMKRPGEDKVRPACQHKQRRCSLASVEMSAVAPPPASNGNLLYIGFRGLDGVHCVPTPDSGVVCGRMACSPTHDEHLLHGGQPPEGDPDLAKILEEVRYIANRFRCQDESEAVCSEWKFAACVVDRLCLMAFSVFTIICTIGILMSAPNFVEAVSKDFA

Row | EC50 [µM] | Structure (SMILES)
1 | 56 | O=C(/C=C/c1ccc(O)cc1)c1cc(O)ccc1O
2 | 125 | O=C(/C=C/c1ccc(O)cc1O)c1cc(O)ccc1O
